Reference: patent publication US20250144049A1, “METHODS, COMPOSITIONS, AND USES RELATED TO THE TREATMENT AND PREVENTION OF LEIGH SYNDROME” (Stealth BioTherapeutics Inc., priority 2023, published 2025)

Key:
[1] = system: Healthy (GM08402) fibroblasts; assay: RSL3 cytoprotection assay, healthy fibroblasts; type: cell-based, human; settings: 1 μM RSL3, 4 hours, FIG. 8
Method: Patient fibroblasts were acquired from Coriell Institute for Medical Research (Camden, NJ, USA). GM03672 is an untransformed fibroblast cell line from a Leigh syndrome patient carrying an unknown mutation. GM08402 is an untransformed fibroblast from an apparently healthy individual. Cells were cultured at 37° C. at 5% CO2 in Eagle's Minimum Essential Medium (MEM, Corning), which was supplemented with Earle's salts and non-essential amino acids, 15% qualified fetal bovine serum, and 1% penicillin/streptomycin ([…]) to yield “Complete MEM.”
To initiate the RSL3 cytoprotection experiment, Healthy (GM08402) and Leigh syndrome (GM03672) fibroblasts were resuspended in Complete MEM. Cells were seeded at 10,000 cells per well in a clear, tissue cultured-treated, 96-well plate and incubated at 37° C. overnight. Following the incubation, supernatant was manually aspirated, taking care not to disrupt cells. […]. Luminescence units were quantified by GEN5 software on a BioTek SYNERGY neo2 plate reader (LUM filter).
RSL3 is an inhibitor of the enzyme glutathione peroxidase 4 (GPX4), which decreases lipid peroxides. RSL3 inhibition of GPX4 induces ferroptosis through iron-dependent accumulation of lipid ROS. In this assay, Healthy or Leigh fibroblasts were treated for 4 hours with RSL3 to induce ferroptosis or left untreated. Endogenous ATP levels were measured as an indicator of cellular viability using a commercially available kit (CellTiter-Glo® 2.0 Cell Viability Assay (Promega)).
[…]. […] Briefly, ferroptosis was induced with 1 μM RSL3 in healthy fibroblast cells and 375 nM RSL3 in fibroblasts from a patient with Leigh syndrome.
A preliminary experiment was performed to determine the effect of RSL3 injury on the fibroblasts of a healthy individual (cell line: GM08402) and the fibroblasts of a patient diagnosed with Leigh syndrome (cell line: GM03672).

[2] = system: 15-lipoxygenase (15-LO); assay: 15(S)-HETE ELISA following RSL3 treatment, Leigh fibroblasts; type: cell-based, human; settings: 700 nM RSL3, 1 μM compound, FIG. 11
Method: Samples for the 15(S)-HETE ELISA were generated by the RSL3 cytoprotection assay described above. Healthy or Leigh fibroblasts were resuspended in assay medium, seeded at 200,000 cells per well in a clear, tissue culture-treated, 24-well plate. Cells were incubated at 37° C. for 24 hours. Supernatant was aspirated from each well following the incubation.
Fibroblasts from both a healthy individual and a patient diagnosed with Leigh syndrome were examined (but not all compounds were examined in each cell type). Activation of ferroptosis has been implicated as a driver of epilepsy, which is commonly associated with Leigh syndrome. […] Kahn-Kirby et al. PLOS One. […] As a key regulator of ferroptosis, 15-LO serves as a rational therapeutic target in Leigh syndrome.

[3] = system: reverse electron transfer (RET) from Complex II to Complex I in isolated murine brain mitochondria; assay: Reverse electron transfer (RET) assay, H2O2 (ROS) production; type: biochemical, mouse
Method: For mitochondria isolation, brains were dissected at a local vivarium (Explora, MA, USA) from C57BL/6 mice that were supplied by The Jackson Laboratory (Maine, USA). Brains were collected on ice in cold mitochondria isolation buffer (225 mM mannitol, 75 mM sucrose, 5 mM HEPES, 1 mM EGTA, pH 7.4). In a glass petri dish, brains were mixed with a few drops of buffer and cut into small pieces resembling a mash using scissors. Mitochondrial isolation buffer was added at 1:10-1:20 (w/v) and tissue mash was transferred to a glass Dounce tissue homogenizer and further homogenized with 10-15 strokes. Mash was centrifuged at 1,000×g for 10 min to pellet and remove cellular debris, etc. Supernatant was transferred into 2.0 mL tubes and centrifuged at 10,000×g. The mitochondria pellet was resuspended in the desired amount of miR05 buffer (Oroboros, Innsbruck, Austria) and added directly to the Oroboros oxygraph-2K (Oroboros, Innsbruck, Austria) for an experiment or maintained on ice for up to 4 hours.
All high-resolution respirometry experiments were conducted using the Oroboros O2k-Fluorespirometer (Oroboros, Innsbruck, Austria). The Oroboros O2k-Fluorespirometer was calibrated daily using the air calibration protocol on DatLab 7.4 (Oroboros, Innsbruck, Austria). Prior to each experiment requiring the fluorescence module, the AmpR calibration protocol from DatLab 7.4 was used to calibrate the fluorescence signal. Initial data analysis, including setting of marks, was performed using DatLab 7.4.
Reverse electron transfer (RET) was measured using HRR with the Oroboros O2k and DatLab 7.4. To configure the Amp channel, the light or “Fluo intensity” was set at 1000 and the amplification of signal or “Gain for Fluo sensor” at 500 and illumination in the chamber was turned “off”. To calibrate the Fluo sensors, the Instrument protocol “AmR calibration” was used. […]
Statistical analysis was performed using GraphPad Prism 9. […] RET Assay data were analyzed by 2-way ANOVA using a p-value of 0.05. […]

[4] = 2 μM compound prior to addition of succinate (10 mM)

SMILES	anti-ferroptosis properties compared among test articles [1]	15-LO inhibition compared among test articles [2]	H2O2 production [3, 4]	H2O2 production ([3]; 1 μM compound prior to addition of succinate (10 mM))
CC1=C(C)C(=O)C(CC[C@@](C)(O)COCCC[Si](C)(C)C)=C(C)C1=O [Compound 3]	superior to Compounds 1, 4 and Vatiquinone	roughly equivalent protective effect	statistically significant reduction	–
CC1=C(C)C(=O)C(CC[C@](C)(O)CCCCCCCCC(F)(F)F)=C(C)C1=O [Compound 4]	roughly equivalent	roughly equivalent protective effect	statistically significant reduction	statistically significant reduction
